US11040976B2, “Substrate selective inhibitors of insulin-degrading enzyme (IDE) and uses thereof” (President and Fellows of Harvard College, priority 2015, dated 2021)

What was measured:
[1] = test system: human IDE Ile362Gln and Gly362Gln; test: Activity assay of mutant human IDE variants Ile362Gln and Gly362Gln with IDE inhibitors; type: biochemical
Source text: N-His6-tagged human IDE42-1019 construct was introduced in the expression plasmid pTrcHis-A (Invitrogen) using primers for uracil-specific excision reactions (USER) by Taq (NEB) and Pfu polymerases (PfuTurbo CX®, Agilent), as described in more detail in Maianti et al. (Nature (2014), 511, 94-98), which is incorporated by reference herein. The IDE gene was amplified with the primers 5′-[…]-dU-[…] (SEQ ID NO: 26) and 5′-[…] G-dU-[…] (SEQ ID NO: 27) (underlined sequences represent overhangs, and italics highlight the PCR priming sequence). Similarly, the pTrcHis-A vector was amplified for USER cloning with the primers 5′-[…]-dU-[…] (SEQ ID NO: 28) and 5′-[…]-dU-[…] (SEQ ID NO: 29). Mutant IDE constructs were generated by amplifying the full vector construct with USER cloning primers introducing a mutant overhang (see Table E6).
Recombinant His6-tagged proteins were purified by Ni(II)-affinity chromatography (IMAC sepharose beads, GE Healthcare®) according to the manufacturer's instructions. The cell pellets were re-suspended in pH 8.0 buffer containing 50 mM phosphate, 300 mM NaCl, 10 mM imidazole, 1% Triton X-100 and 1 mM tris(2-carboxyethyl)phosphine hydrochloride (TCEP), and were lysed by probe sonication for 4 minutes at <4° C., followed by clearing of cell debris by centrifugation at 10,000 g for 25 minutes at 4° C. […]

[2] = molecular target: T1, IDE (R&D), substrate glucagon (Homo sapiens, UniProt P14735); test: HTRF assay for IDE-mediated degradation of glucagon; type: biochemical; conditions: compounds 67 μM, 0° C. for 10 minutes, versus DMSO alone, FIG. 5
T1 construct: recombinant human IDE42-1019 (R&D Systems); purchased R&D
T1 sequence (P14735 42-1019): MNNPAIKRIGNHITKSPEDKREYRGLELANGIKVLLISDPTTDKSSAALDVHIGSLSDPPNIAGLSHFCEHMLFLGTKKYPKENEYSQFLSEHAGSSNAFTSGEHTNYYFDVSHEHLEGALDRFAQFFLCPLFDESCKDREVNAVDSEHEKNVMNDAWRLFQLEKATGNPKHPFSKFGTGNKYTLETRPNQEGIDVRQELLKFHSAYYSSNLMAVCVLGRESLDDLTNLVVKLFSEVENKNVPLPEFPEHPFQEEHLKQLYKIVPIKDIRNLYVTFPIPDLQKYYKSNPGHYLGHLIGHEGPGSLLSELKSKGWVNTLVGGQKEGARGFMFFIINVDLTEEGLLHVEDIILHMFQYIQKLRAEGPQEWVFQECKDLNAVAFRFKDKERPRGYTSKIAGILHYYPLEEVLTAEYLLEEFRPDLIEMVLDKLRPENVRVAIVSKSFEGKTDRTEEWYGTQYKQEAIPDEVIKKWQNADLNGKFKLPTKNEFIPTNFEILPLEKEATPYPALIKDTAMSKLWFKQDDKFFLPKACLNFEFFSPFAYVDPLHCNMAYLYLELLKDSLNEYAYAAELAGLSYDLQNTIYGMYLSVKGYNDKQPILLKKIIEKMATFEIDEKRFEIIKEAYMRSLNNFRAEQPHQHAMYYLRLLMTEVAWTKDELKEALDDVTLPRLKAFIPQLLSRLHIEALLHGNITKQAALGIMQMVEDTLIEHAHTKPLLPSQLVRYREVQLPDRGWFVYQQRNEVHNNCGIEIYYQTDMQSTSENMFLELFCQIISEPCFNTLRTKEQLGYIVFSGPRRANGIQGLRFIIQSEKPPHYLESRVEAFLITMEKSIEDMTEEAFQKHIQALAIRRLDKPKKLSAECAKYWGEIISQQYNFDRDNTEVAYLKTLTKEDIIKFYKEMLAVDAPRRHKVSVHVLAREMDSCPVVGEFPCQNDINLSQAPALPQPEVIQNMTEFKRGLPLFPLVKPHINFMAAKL
Method: A solution of 0.05 μg/mL IDE (R&D) in “Diluent #5” (CisBio, 24 μL) was transferred to a 200 μL tube strip, and combined with 1 μL of each inhibitor (10 mM in DMSO, or as a 3-fold dilution series). […] This procedure was optimized to result in ˜75% degradation of glucagon. The reaction was terminated by 1 μL of inhibitor Ii1 (5 μM) and chilled on ice. The remaining glucagon was quantified using 10 μL of the quenched enzymatic reaction using the sensitive-range protocol Homogeneous Time-Resolved FRET Glucagon assay (CisBio® 62GLCPEF, see FIG. 3) in 20 μL total volume according to the manufacturer's instructions (384 well-plate Greiner 784904 non-binding). Fluorescence was measured using a Tecan M1000Pro plate reader (excitation=340 nm, emission=665 and 620 nm, lag time=60 μs) according the assay manufacturer's recommendations. Blank wells and glucagon standard curve were included in the assay.
FIG. 4 compares the determined endpoint for insulin degradation with of glucagon degradation for a DMSO control, 6bK at 10 μM, and exemplary compounds of the invention at concentrations of 67 μM.
The HTRF endpoint assay for insulin and glucagon was performed over a range of concentrations for several potential inhibitors and for 6bK.

Cc1cccc(-c2ccc([C@@H]3[C@@H](CO)N4CCCCN(S(=O)(=O)c5ccccc5C)C[C@@H]34)cc2)c1 [compound 297]
effect of mutations Ile362Gln and Gly362Gln on inhibition potency [1]: reduce the inhibition potency
initial rates of glucagon cleavage [2]: reduced
